Molecules are shown by their SMILES. pIC50: −log10 of the molar value.

The subject of the first assay is IL-1β production in PMA-differentiated THP-1 cells. In words: IL-1β production in PMA-differentiated THP-1 cells stimulated with gramicidin (hTHP-1 assay, HTRF readout; Procedures 1-3). In kind it is cell-based, human. Conditions: Homo sapiens, THP-1, hTHP-1 assay containing 2% fetal bovine serum; average; class symbols; read-out: hTHP-1 IC50 (Average IC50 of compounds in hTHP-1 assay). In outline: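 PMA-differentiated (20 ng/ml, 16-18 h) THP-1 cells in RPMI with 2% FBS, 50,000 cells/well, preincubated 1 h with compound (final 0.0017-100 μM, 0.37% DMSO), then stimulated with 5 μM gramicidin for 2 h. IL-1β in cell-free supernatant measured by HTRF (620/668 nm).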
As for `CC(C)(C)OC(=O)NS(=O)(=NC(=O)Nc1c2c(cc3c1CCC3)CCC2)c1cnc(C(C)(C)O)s1` (stereo not drawn) [Example 7, Tert-butyl N-(1,2,3,5,6,7-hexahydro-s-indacen-4-ylcarbamoyl)-2-(2-hydroxypropan-2-yl)thiazole-5-sulfonimidoylcarbamate], the pIC50 is 6.00 to 6.70.

Regarding `C=CCN(C)Cc1ccc(S(N)(=O)=NC(=O)Nc2c3c(cc4c2CCC4)CCC3)cc1` (stereo not drawn) [Example 238, 4-((Allyl(methyl)amino)methyl)-N′-(1,2,3,5,6,7-hexahydro-s-indacen-4-ylcarbamoyl)benzenesulfonimidamide], the pIC50 is 5.30 to 6.00.

Turning to `CC(=O)NS(=O)(=NC(=O)Nc1c2c(cc3c1CCC3)CCC2)c1cnc(C(C)(C)O)s1` (stereo not drawn) [Example 250], the pIC50 is 4.52 to 5.30.

In the case of `CN(C)S(=O)(=NC(=O)Nc1c2c(cc3c1CCC3)CCC2)c1cc(C(C)(C)O)cs1` (stereo not drawn) [Example 245], the pIC50 is 4.52 to 5.30.

For `CC(C)(O)c1csc(S(N)(=O)=NC(=O)Nc2c3c(c(C#N)c4c2CCC4)CCC3)c1` (stereo not drawn) [Example 26, N′-(8-cyano-1,2,3,5,6,7-hexahydro-s-indacen-4-ylcarbamoyl)-4-(2-hydroxypropan-2-yl)thiophene-2-sulfonimidamide], the pIC50 was 6.70 to 7.40.

`NCc1ccc(S(N)(=O)=NC(=O)Nc2c3c(cc4c2CCC4)CCC3)cc1` (stereo not drawn) [Example 243, 4-(Aminomethyl)-N′-(1,2,3,5,6,7-hexahydro-s-indacen-4-ylcarbamoyl)benzenesulfonimidamide]: the pIC50 was 5.30 to 6.00.

On to `CC(C)c1cc(F)cc(C(C)C)c1NC(=O)N=S(N)(=O)c1cccc(C(C)(C)O)c1` (stereo not drawn) [Example 22, N′-(4-fluoro-2,6-diisopropylphenylcarbamoyl)-3-(2-hydroxypropan-2-yl)benzenesulfonimidamide], for which the negative-log IC50 (pIC50) is 5.30 to 6.00.

`COC1CN(Cc2ccc(S(N)(=O)=NC(=O)Nc3c4c(cc5c3CCC5)CCC4)cc2)C1` (single isomer, unassigned) [Example 379, (R) or (S)-N′-((1,2,3,5,6,7-hexahydro-s-indacen-4-yl)carbamoyl)-4-((3-methoxyazetidin-1-yl)methyl)benzene-sulfonimidamide]: the pIC50 was 5.30 to 6.00.

On to `CC(C)c1cc(C#N)cc(C(C)C)c1NC(=O)NS(=N)(=O)c1sc(C(C)(C)O)nc1CO` (stereo not drawn) [Example 70, N-((4-cyano-2,6-diisopropylphenyl)carbaoyl)-4-(hydroxymethyl)-2-(2-hydroxypropan-2-yl)thiazole-5-sulfonimidamide], for which the pIC50 is 5.30 to 6.00.

As for `CC(C)c1cc(OC(F)F)cc(C(C)C)c1NC(=O)N=S(N)(=O)c1sc(C(C)(C)O)cc1F` (stereo not drawn) [Example 17, N′-(4-(difluoromethoxy)-2,6-diisopropylphenylcarbamoyl)-3-fluoro-5-(2-hydroxypropan-2-yl)thiophene-2-sulfonimidamide], the pIC50 is 7.40 to 8.10.

Turning to `Cc1oc(S(N)(=O)=NC(=O)Nc2c(C(C)C)cc(F)cc2C(C)C)cc1C(C)(C)O` (stereo not drawn) [Example 10, N′-(4-fluoro-2,6-diisopropylphenylcarbamoyl)-4-(2-hydroxypropan-2-yl)-5-methylfuran-2-sulfonimidamide], the pIC50 was 6.70 to 7.40.

On to `CC(C)c1cc(C#N)cc(C(C)C)c1NC(=O)N=S(N)(=O)c1ccc(S(C)(=O)=O)cc1` (single isomer, unassigned) [Example 196, (S)- or (R)-N′-((4-cyano-2,6-diisopropylphenyl)carbamoyl)-4-(methylsulfonyl)-benzenesulfonimidamide], for which the pIC50 is 4.52 to 5.30.

For the molecule `CC(C)c1cc(C#N)cc(C(C)C)c1NC(=O)N=S(N)(=O)c1cc(C(C)(C)O)cc(C(C)(C)O)c1` (stereo not drawn) [Example 66, N′-((4-cyano-2,6-diisopropylphenyl)carbaoyl)-3,5-bis(2-hydroxypropan-2-yl)benzenesulfonimidamide], the pIC50 was 4.52 to 5.30.

`CC(C)(O)c1cccc(S(N)(=O)=NC(=O)Nc2c3c(cc4c2CCC4)CCC3)c1` (stereo not drawn) [Example 46, N′-(1,2,3,5,6,7-hexahydro-s-indacen-4-ylcarbamoyl)-3-(2-hydroxypropan-2-yl)benzenesulfonimidamide]: the pIC50 is 5.30 to 6.00.

`CC(C)c1nn(-c2ccccc2)c(C(C)C)c1NC(=O)N=S(N)(=O)c1cc(C(C)(C)O)cs1` (stereo not drawn) [Example 284, N′-((3,5-diisopropyl-1-phenyl-1H-pyrazol-4-yl)carbamoyl)-4-(2-hydroxypropan-2-yl)thiophene-2-sulfonimidamide]: the pIC50 was 4.52 to 5.30.

For the molecule `CC(C)c1cc(F)cc(C(C)C)c1NC(=O)N=S(N)(=O)c1cccc(S(C)(=O)=O)c1` (stereo not drawn) [Example 63, N′-((4-fluoro-2,6-diisopropylphenyl)carbaoyl)-3-(methylsulfonyl)benzenesulfonim idamide], the pIC50 is 5.30 to 6.00.

As for `Cc1sc(S(N)(=O)=NC(=O)Nc2c3c(cc4c2CCC4)CCC3)nc1C(C)(C)O` (stereo not drawn) [Example 265, N′-(1,2,3,5,6,7-hexahydro-s-indacen-4-ylcarbamoyl)-4-(2-hydroxypropan-2-yl)-5-methylthiazole-2-sulfonimidamide], the pIC50 was 6.70 to 7.40.

For `CC(C)c1csc(S(N)(=O)=NC(=O)Nc2c3c(cc4c2CCC4)CCC3)c1` (stereo not drawn) [Example 282, N′-((1,2,3,5,6,7-hexahydro-s-indacen-4-yl)carbamoyl)-4-isopropylthiophene-2-sulfonimidamide], the pIC50 is […].

For `CC(C)(O)c1ncc(S(N)(=O)=NC(=O)Nc2c3c(c(F)c4c2CCC4)CCC3)s1` (stereo not drawn) [Example 44, N′-(8-fluoro-1,2,3,5,6,7-hexahydro-s-indacen-4-ylcarbamoyl)-2-(2-hydroxypropan-2-yl)thiazole-5-sulfonimidamide], the pIC50 is […].

For the molecule `Cc1oc(S(N)(=O)=NC(=O)Nc2c3c(nc4c2CCC4)CCC3)cc1C(C)(C)O` (stereo not drawn) [Example 221, N′-((1,2,3,5,6,7-hexahydrodicyclopenta[b,e]pyridin-8-yl)carbamoyl)-4-(2-hydroxypropan-2-yl)-5-methylfuran-2-sulfonimidamide], the pIC50 was 6.70 to 7.40.

Regarding `Cn1ncc2cc(S(N)(=O)=NC(=O)Nc3c4c(cc5c3CCC5)CCC4)ccc21` (single isomer, unassigned) [Example 397, (R) or (S)-N′-((1,2,3,5,6,7-hexahydro-s-indacen-4-yl)carbamoyl)-1-methyl-1H-indazole-5-sulfonimidamide], the pIC50 is 5.30 to 6.00.

The same assay, now with this note: Homo sapiens, THP-1, hTHP-1 assay containing 2% fetal bovine serum; average; given as bound; read-out: hTHP-1 IC50 (Average IC50 of compounds in hTHP-1 assay).
In the case of `COC1CN(Cc2ccc(S(N)(=O)=NC(=O)Nc3c4c(cc5c3CCC5)CCC4)cc2)C1` (single isomer, unassigned) [Example 380, (S) or (R)-N′-((1,2,3,5,6,7-hexahydro-s-indacen-4-yl)carbamoyl)-4-((3-methoxyazetidin-1-yl)methyl)benzene-sulfonimidamide], the pIC50 is < 4.52.

The same assay, now with this note: hTHP-1 assay containing 2% fetal bovine serum; average; class symbols; read-out: hTHP-1 IC50 (Average IC50 of compounds in hTHP-1 assay).
Consider `CC(C)(O)c1ncc([S@](N)(=O)=NC(=O)Nc2c3c(cc4c2CC4)CCC3)s1` (single isomer, unassigned) [Example 224], for which the pIC50 was 7.40 to 8.10.

For `CC(C)(O)c1ncc(S(N)(=O)=NC(=O)Nc2c3c(cc4c2C(O)CC4)CCC3)s1` (single isomer, unassigned) [Example 391, (R, R) or (R, S) or (S, S) or (S, R)-N′-((3-hydroxy-1,2,3,5,6,7-hexahydro-s-indacen-4-yl)carbamoyl)-2-(2-hydroxypropan-2-yl)thiazole-5-sulfonimidamide], the pIC50 was 6.00 to 6.70.

The record behind these values is patent publication US10654816B2, “Compounds and compositions for treating conditions associated with NLRP activity” (NOVARTIS INFLAMMASOME RESEARCH, INC., priority 2017, dated 2020).
